How the values were obtained:
[1] = test system: HIF; assay: Assay for inhibitory activity against HIF activity (HIF1 luciferase reporter cell line); assay type: cell-based, human; conditions: Homo sapiens; HEK293 HIF1 reporter cell line, 1% oxygen, 6 hours, luciferase activity 50% inhibited
Text: In order to assay the compounds of the present invention for inhibitory activity against HIF activity, the HIF1 reporter plasmid (Panomics) that is designed to control the expression of luciferase by HIF was employed. The HIF1 reporter plasmid and the pTK-Hyg plasmid (Clontech), which carries a hygromycin resistant gene, were co-transfected into the HEK293 cell line (the Korean Cell Line Bank, KCLB No. 21573), derived from the human kidney, with the aid of Effectene transfection reagent (Qiagen). Then, the cells were cultured for 3 weeks on a medium containing 200 μg/mL hygromycin to select transformants resistant to hygromycin. The cell colonies derived from single cells were transferred to 24-well plates to secure a reporter cell line. The cells were seeded at a density of 4×10^4 cells/well into 96-well plates containing DMEM and incubated for 24 hours before treatment with the compounds of the present invention at a concentration of 25 μM, 5 μM, 1 μM, 200 nM, 40 nM, 8 nM, 1.6 nM, 320 pM, 64 pM, 12.8 pM, 2.56 pM, 512 fM, 102 fM, 20.4 fM, or an amount between any two concentrations above as shown in FIGS. 1A to 1C. Under 1% oxygen condition, the cells were incubated for 6 hours and then, the medium was removed. The cells were lyzed by incubation for 5 min with 100 μL of the mixture of Bright-Glo™ luciferase assay buffer and Bright-Glo™ luciferase assay substrate (Promega). The whole cell lysate was transferred to 96-well, white plates (PerkinElmer) and measured for luminescence using Victor™ 3 (PerkinElmer). From the luminescence measurements, IC50 (a concentration of the compound at which luciferase activity was 50% inhibited) was calculated using the GraphPad Prism™ 4 program. The results are summarized in Table 2 and illustrated in FIGS. 1A to 1C.

[2] = test system: tumor-induced angiogenesis (HCT116 cells); assay: Assay for inhibitory activity against in vivo tumor-induced angiogenesis (intravital microscopy); parameters: species or system BALB/c mice; conditions: 1 μmol in Matrigel with VEGF and HCT116 cells in abdominal window, four days, t-test p<0.01, FIGS. 4A and 4B
Description: The inhibitory activity of the compounds of the present invention against angiogenesis was examined in vivo using intravital microscopy. Titanium windows (diameter 19 mm, inner diameter 14 mm, thickness 0.7 mm) were implanted in the abdominal walls male BALB/c mice, 6-8 weeks old, which had been anesthetized. A mixture of 100 μL Matrigel™ 20 ng VEGF, 1×10^5 HCT116 or HCT116 cells, and 1 μmol compound 75 was inserted into the tissues inside the window which was then covered with a cover slip and fixed with a snap ring. Four days later, 50 μL of 25 mg/mL fluorescein isothiocyanate-labeled dextran (Mw 250,000 Sigma) was injected via the tail vein to examine angiogenesis. Mice were then placed on a Zeiss Axiovert™ 200M microscope with a filter set (440-475 nm, excitation wavelength; 530-550 nm, emission wavelength). Fluorescence images were recorded in each window by an electron-multiplying CCD camera (Photon Max™ 521, Princeton Instruments) and digitized for subsequent off-line analysis using the MetaMorph™ program (Universal Imaging). The angiogenesis was scored from 0 (least positive) to 5 (most positive). Observations and degree of angiogenesis are shown in FIGS. 4A and 4B, respectively. […] Accordingly, the compound of the present invention was identified to inhibit angiogenesis in vivo.

Row | Structure (SMILES) | IC50 [1] [nM] | degree of angiogenesis (score 0 to 5) versus HCT-116 group [2]
1 | CCCOc1c(F)ccc(OCc2ccccc2/C(=C\OC)C(=O)OC)c1F [Compound 65, (E)-methyl 2-(2-((2,4-difluoro-3-propoxyphenoxy)methyl)phenyl)-3-methoxyacrylate] | 1000 | 
2 | CCCO/N=C/c1cc(C)c(OCc2ccccc2/C(=C\OC)C(=O)OC)cc1C [Compound 49, (E)-methyl 2-(2-((2,5-dimethyl-4-((E)-(propoxyimino)methyl)phenoxy)-methyl)phenyl)-3-methoxyacrylate] | 10 | 
3 | CO/C=C(/C(=O)OC)c1ccccc1COc1ccc(/C(C)=N/O)cc1OC [Compound 34, (E)-methyl 2-(2-((4-((E)-1-(hydroxyimino)ethyl)-2-methoxyphenoxy)-methyl)phenyl)-3-methoxyacrylate] | 4480 | 
4 | CO/C=C(/C(=O)OC)c1ccccc1COc1cc(O)cc(F)c1 [Compound 15, (E)-methyl 2-(2-((3-fluoro-5-hydroxyphenoxy)methyl)phenyl)-3-methoxyacrylate] | 3720 | 
5 | CO/C=C(/C(=O)OC)c1ccccc1COc1cc(C)c(/C=N/OC2CCCC2)cc1C [Compound 69, (E)-methyl 2-(2-((4-((E)-(cyclopentyloxyimino)methyl)-2,5-dimethylphenoxy)methyl)phenyl)-3-methoxyacrylate] | 30 | 
6 | CO/C=C(/C(=O)OC)c1ccccc1COc1cc(C=O)ccc1OC [Compound 6, (E)-methyl 2-(2-((5-formyl-2-methoxyphenoxy)methyl)phenyl)-3-methoxyacrylate] | 14600 | 
7 | CO/C=C(/C(=O)OC)c1ccccc1COc1cc(C)c(/C=N/OCC2CO2)cc1C (centres unmarked) [Compound 52, (E)-methyl 2-(2-((2,5-dimethyl-4-((E)-(oxirane-2-ylmethoxyimino)-methyl)phenoxy)methyl)phenyl)-3-methoxyacrylate] | 2250 | 
8 | CO/C=C(/C(=O)OC)c1ccccc1COc1cc(C)c(/C=N/OCC2CC2)cc1C [Compound 68, (E)-methyl 2-(2-((4-((E)-(cyclopropylmethoxyimino)methyl)-2,5-dimethylphenoxy)methyl)phenyl)-3-methoxyacrylate] | 7 | 
9 | CCCO/N=C/c1cc(F)c(OCc2ccccc2/C(=C\OC)C(=O)OC)c(OC)c1 [Compound 64, (E)-methyl 2-(2-((2-fluoro-6-methoxy-4-((E)-(propoxyimino)methyl)-phenoxy)methyl)phenyl)-3-methoxyacrylate] | 2620 | 
10 | CO/C=C(/C(=O)OC)c1ccccc1COc1cc(/C(C)=N/Nc2ccccc2)ccc1OC [Compound 48, (E)-methyl 2-(2-((2-methoxy-5-((E)-1-(phenylhydrazono)ethyl)phenoxy)-methyl)phenyl)-3-methoxyacrylate] | 8580 | 

The next lines start with results.

Row | IC50 [1] [nM] | Structure (SMILES) | degree of angiogenesis (score 0 to 5) versus HCT-116 group [2]
11 | 150 | CO/C=C(/C(=O)OC)c1ccccc1COc1cccc(/C=N/OCCOc2ccccc2)c1 [Compound 75, (E)-methyl 2-(2-((3-((E)-(2-phenoxyethoxyimino)methyl)phenoxy)-methyl)phenyl)-3-methoxyacrylate] | significant difference
12 | 30 | CO/C=C(/C(=O)OC)c1ccccc1COc1cccc(/C=N/Oc2ccccc2)c1 [Compound 47, (E)-methyl 2-(2-((3-((E)-1-(phenoxyimino)methyl)phenoxy)methyl)-phenyl)-3-methoxyacrylate] | 
13 | 370 | CO/C=C(/C(=O)OC)c1ccccc1COc1ccc(/C(C)=N/OCc2ccccc2)cc1 [Compound 17, (E)-methyl 2-(2-((4-((E)-1-(benzyloxyimino)ethyl)phenoxy)methyl)-phenyl)-3-methoxyacrylate] | 
14 | 260 | CO/C=C(/C(=O)OC)c1ccccc1COc1cc(F)cc(OCCOc2ccccc2)c1 [Compound 22, (E)-methyl 2-(2-((3-fluoro-5-(2-phenoxyethoxy)phenoxy)methyl)phenyl)-3-methoxyacrylate] | 
15 | 50 | CO/C=C(/C(=O)OC)c1ccccc1COc1cccc(OCc2ccccc2)c1 [Compound 3, (E)-methyl 2-(2-((3-(benzyloxy)phenoxy)methyl)phenyl)-3-methoxyacrylate] | 
16 | 510 | CO/C=C(/C(=O)OC)c1ccccc1COc1cccc(OCc2ccccn2)c1 [Compound 26, (E)-methyl 2-(2-((3-(pyridin-2-ylmethoxy)phenoxy)methyl)phenyl)-3-methoxyacrylate] | 

Reference: patent US8772290B2, “Alpha-arylmethoxyacrylate derivative, preparation method thereof, and pharmaceutical composition containing same” (Oscotech Inc., priority 2010, dated 2014)
